One series has as its system 786-O. As to the kind of experiment: Cell proliferation (Alamar Blue) assay, 786-O renal cell carcinoma, with/without ferrostatin. It is filed as cell-based. The conditions noted are these: Homo sapiens, 786-0, Cell Line 786-O; read-out: IC50. An outline of the steps: (§1)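 Cells seeded at 5000/well, 16-24 h, then exposed 24 h at 37° C to compound, 10-0.0005 μM in 3-fold dilutions, 1% DMSO final. Alamar Blue fluorescence (ex 540/em 590 nm) read after 1.5 h; IC50 from variable-slope sigmoidal fit.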

A further series relates to SJSA-1. As to the kind of experiment: Cell proliferation (Alamar Blue) assay, SJSA-1 osteosarcoma, with/without ferrostatin. The class given is cell-based, human. Conditions: Homo sapiens, SJSA-1, Cell Line SJSA-1; read-out: IC50. An outline of the steps: as §1
Series [1] in a line: PK profile, IV plasma concentration and PK parameters. It is filed as in vivo. Conditions: Balb/C nude, mouse. As to the method:
The PK profiles of compounds 148, 149, 150, 156 and 169 are shown below. Compound 156 was formulated in 30% Kolliphor EL (Cremophor EL) in water and compounds 148, 149, 150 and 169 were formulated in 30% Kolliphore EL with 1% poloxamar 407 in water. All compounds were dosed at 5 mg/kg. Blood samples were collected at various time points and analyzed using the method described above.

A further series relates to A549. As to the kind of experiment: Cell viability assay, A549 cells. The class given is cell-based. The conditions noted are these: Homo sapiens, A549, Cell Line A549; read-out: IC50. As for the experimental part: Example 5: Inducer Compound Effect on Growth of A549 and KP4 Cells
Cell viability assay was performed to assess the potency of the compounds in cancer cell line KP4 (pancreatic ductal adenocarcinoma). Cells at a density of 1,000-10,000 cells/well were seeded in 96-well plates and incubated at 37° C. overnight. A series of 9 different concentrations of compound stocks (500×) were created by 3-fold serial dilution in DMSO. These compounds were further diluted in culture media and then added to cells so that the final DMSO concentration was equal to 0.25% or less. After 96 hours of incubation, 50 μL of CellTiter Glo reagent (Promega) was added to each well and luminescence was measured after 10 minutes using EnVision (PerkinElmer). All compounds were tested initially from 30 μM as the top concentration in duplicates (range of 4.6 nM-30 μM). […] Luminescence from cells treated with DMSO alone was set as Max and % of inhibition was calculated as follows: Inhibition %=(Max-Sample value)/Max*100. Data was analyzed using XL-fit software (ID Business Solutions Ltd.). IC50, relative IC50, or % of top inhibition was calculated. […]

Another series concerns MiaPaCa-2. As to the kind of experiment: Cell viability assay (CellTiter Glo), pancreatic carcinoma MiaPaCa-2. The conditions noted are these: Homo sapiens, MIA PaCa-2; pancreatic carcinoma, 96 hours, CellTiter Glo; read-out: IC50 MiaPaCa-2. It is filed as cell-based. As for the experimental part:
(§2) Cell viability assay was performed to assess the potency of the compounds in human cancer cell lines KP4 (pancreatic ductal adenocarcinoma), MiaPaCa-2 (pancreatic carcinoma), AsPC-1 (pancreatic adenocarcinoma, ascites), 143B (osteosarcoma), and SJSA-1 (osteosarcoma). Selected compounds were also assayed in a human breast epithelial cell line MCF-10A, a nontumorigenic cell line as a control to assess differential activity. Cells at a density of 500-5,000 cells/well were seeded in 96-well plates and incubated at 37° C. overnight. A series of 9 different concentrations of compound stocks (500×) were created by 3-fold serial dilution in DMSO. These compounds were further diluted in culture media and then added to cells so that the final DMSO concentration was equal to 0.25% or less. After 96 hours of incubation, 50 μL of CellTiter Glo reagent (Promega) was added to each well and luminescence was measured after 10 minutes using EnVision (PerkinElmer). Compounds titrated from top concentration of up to 30 μM. The select compounds were tested initially from 30 μM as the top concentration in duplicates (range of 4.6 nM-30 μM). […] Luminescence from cells treated with DMSO alone was set as Max and % of inhibition was calculated as follows: Inhibition %=(Max-Sample value)/Max*100. Data was analyzed using XL-fit software (ID Business Solutions Ltd.). IC50, relative IC50, or % of top inhibition was calculated.
The results of the assay in the pancreatic cell lines are given in Table 15a for PANC1, Table 15b for MiaPaCa-2, and Table 15c for AsPC-1.

The subject of another series is MCF-10A. As to the kind of experiment: Cell viability assay (CellTiter Glo), non-tumorigenic breast epithelial cell line MCF-10A. The class given is cell-based. Conditions: Homo sapiens, 96 hours. As for the experimental part: as §2
Paclitaxel was used as the positive control for cytotoxicity.

Where [2] appears, read: iv, 5 mg/kg, 30% Kolliphore EL with 1% poloxamar 407 in water.
The mark [3] stands for this setting: iv, 5 mg/kg, 30% Kolliphor EL in water (Table 10b).

21 compounds from patent US11098040B2, “Compounds and methods of use” (Ferro Therapeutics, Inc., priority 2018, dated 2021) can be followed below.

Molecules are shown by their SMILES. pIC50: −log10 of the molar value. Where two headings read alike, the source gives them in different places.

`C[C@H]1Cc2c([nH]c3ccccc23)[C@H](c2ccc(NC34CC5CC(CC(C5)C3)C4)cc2)N1C(=O)CCl` [Compound 150, 1-((1S,3S)-1-(4-(((3R,5R,7R)-adamantan-1-yl)amino)phenyl)-3-methyl-1,3,4,9-tetrahydro-2H-pyrido[3,4-b]indol-2-yl)-2-chloroethan-1-one]: the pIC50 in the series with 786-O is 8.05; in the series on SJSA-1, 8.10. Besides, the C0 in series [1] (setting [2]) worked out at 3400 ng/mL. In series [1] (setting [2]), this compound showed a peak concentration (Cmax) of 2260 ng/mL. Moreover, in series [1] (setting [2]), the clearance was found to be 113 mL/min/kg. The AUC(0-t) in series [1] (iv, 5 mg/kg, 30% Kolliphore EL with 1% poloxamar 407 in water, read-out: AUC0-t) amounted to 735 ng·h/mL. In addition, in series [1] (iv, 5 mg/kg, 30% Kolliphore EL with 1% poloxamar 407 in water, read-out: AUC0-∞), the AUC(0-inf) was 740 ng·h/mL. Moreover, the Vd in series [1] (iv, 5 mg/kg, 30% Kolliphore EL with 1% poloxamar 407 in water, read-out: Vd) was found to be 3.25 L/kg; in series [1] (iv, 5 mg/kg, 30% Kolliphore EL with 1% poloxamar 407 in water, read-out: Vss), 1.64 L/kg. Besides, the half-life in series [1] (iv, 5 mg/kg, 30% Kolliphore EL with 1% poloxamar 407 in water, time points considered 0.25-2 h) is 19.8 min.
For `C#CC(=O)N1[C@@H](CCCC)Cc2c([nH]c3c(F)cc(F)cc23)[C@@H]1c1ccc(F)cc1` [Compound 156], in the series on A549, the pIC50 was 5.37. Moreover, in the series on 786-O, the pIC50 is 7.12. Moreover, the negative-log IC50 (pIC50) in the series on SJSA-1 is 7.37. For the same compound, the concentration at 5 min in series [1] (5 mg/kg IV, BID q12, post 2nd dose, 5 min, 30% Kolliphor EL in water) was found to be 18500 ng/mL. In series [1] (5 mg/kg IV, BID q12, post 2nd dose, 0.25 h, 30% Kolliphor EL in water), this compound gave a concentration at 0.25 h of 4640 ng/mL. In addition, in series [1] (5 mg/kg IV, BID q12, post 2nd dose, 0.5 h, 30% Kolliphor EL in water), the concentration at 0.5 h was 984 ng/mL. The same compound showed a concentration at 1 h in series [1] (5 mg/kg IV, BID q12, post 2nd dose, 1 h, 30% Kolliphor EL in water) of 302 ng/mL. In series [1] (5 mg/kg IV, BID q12, post 2nd dose, 2 h, 30% Kolliphor EL in water), the concentration at 2 h is 105 ng/mL. For the same compound, in series [1] (5 mg/kg IV, BID q12, post 2nd dose, 4 h, 30% Kolliphor EL in water), the concentration at 4 h is 45.9 ng/mL. Further, the concentration at 8 h in series [1] (5 mg/kg IV, BID q12, post 2nd dose, 8 h, 30% Kolliphor EL in water) came to 24.4 ng/mL. Also, in series [1] (setting [3]), the C0 worked out at 38200 ng/mL, the MRT inf was 33.2 min, the clearance is 14.5 mL/min/kg and the half-life is 180 min. For the same compound, the AUC(0-inf) in series [1] (iv, 5 mg/kg, 30% Kolliphor EL in water (Table 10b), read-out: AUCInf) came out at 5920 ng·h/mL. For the same compound, the AUC(0-t) in series [1] (iv, 5 mg/kg, 30% Kolliphor EL in water (Table 10b), read-out: AUClast) came out at 5810 ng·h/mL. Besides, in series [1] (iv, 5 mg/kg, 30% Kolliphor EL in water (Table 10b), read-out: Vss), the Vd worked out at 0.48 L/kg. The Vd in series [1] (iv, 5 mg/kg, 30% Kolliphor EL in water (Table 10b), read-out: Vz) is 3.72 L/kg.
On to `C#CC(=O)N1[C@@H](c2ccc(C#N)cc2)c2[nH]c3ccccc3c2C[C@@H]1C` [Compound 194], for which the pIC50 in the series with A549 is 4.84; in the series with 786-O, 6.54; in the series on SJSA-1, 6.58.
The like results for `C#CC(=O)N1[C@@H](c2ccc(Br)cc2)c2[nH]c3ccccc3c2C[C@@H]1C` [Compound 195] were, in that order, 4.78, 6.40 and 6.59.
Turning to `C#CC(=O)N1[C@@H](c2ccc(Cl)cc2)c2[nH]c3ccccc3c2C[C@@H]1C` [Compound 196], the pIC50 in the series on A549 is 4.69; with 786-O, 6.57; with SJSA-1, 6.88.
Taken in the same sequence, the figures for `C#CC(=O)N1[C@@H](c2c(F)cc(F)cc2F)c2[nH]c3ccccc3c2C[C@@H]1C` [Compound 197] were 5.25, 6.88 and 7.99.
For `C#CC(=O)N1[C@@H](c2cc(F)cc(F)c2)c2[nH]c3ccccc3c2C[C@@H]1C` [Compound 198], the values for the pIC50 in the series on A549, in the series with 786-O and in the series on SJSA-1 were 4.95, 6.74 and 7.05, respectively.
The like results for `C#CC(=O)N1[C@@H](c2ccc(F)c(F)c2)c2[nH]c3ccccc3c2C[C@@H]1C` [Compound 199] were, in that order, 4.71, 6.28 and 6.47.
Taken in the same sequence, the figures for `C#CC(=O)N1[C@@H](c2ccc(F)cc2F)c2[nH]c3ccccc3c2C[C@@H]1C` [Compound 200] were 4.96, 6.15 and 6.35.
Taken in the same sequence, the figures for `C#CC(=O)N1[C@@H](c2c(F)cccc2F)c2[nH]c3ccccc3c2C[C@@H]1C` [Compound 201] were 4.83, 6.19 and 6.72.
Take `C#CC(=O)N1[C@@H](CCCC)Cc2c([nH]c3ccccc23)[C@@H]1c1ccc(F)cc1` [Compound 205]: the pIC50 in the series with A549 is 5.36; with 786-O, 7.21; with SJSA-1, 7.49.
Regarding `C#CC(=O)N1[C@@H](c2ccc(F)cc2)c2[nH]c3ccccc3c2C[C@@H]1C` [Compound 206], the pIC50 in the series on A549 is 4.66; in the series with 786-O, 5.96; in the series with SJSA-1 it was 6.33.
In the case of `C#CCOc1ccc2[nH]c3c(c2c1)C[C@H](C)N(C(=O)CCl)[C@H]3c1ccc(NC23CC4CC(CC(C4)C2)C3)cc1` [Compound 207], the pIC50 with A549 was 4.88; in the series on 786-O, 6.67; with SJSA-1, 7.06.
The like results for `C#CC(=O)N1[C@@H](CCCC)Cc2c([nH]c3ccccc23)[C@@H]1c1ccc(N2CCOCC2)cc1` [Compound 216] were, in that order, 4.65, 6.47 and 6.79.
The like results for `C[C@H]1Cc2c([nH]c3ccccc23)[C@H](c2ccc(F)cc2)N1C(=O)CCl` [Compound 221] were, in that order, 5.55, 6.86 and 7.03.
The like results for `C[C@H]1Cc2c([nH]c3ccccc23)[C@H](c2ccc(S(F)(F)(F)(F)F)cc2)N1C(=O)CCl` [Compound 222] were, in that order, 5.47, 6.77 and 6.94.
`C[C@H]1Cc2c([nH]c3ccccc23)[C@H](C23CC(F)(C2)C3)N1C(=O)CCl` [Compound 226]: the pIC50 is 5.06 with A549, 5.90 with 786-O and 5.94 in the series on SJSA-1.
Take `COC(=O)[C@H]1Cc2c([nH]c3ccccc23)[C@H](c2ccc(C(=O)NCCN)cc2)N1C(=O)CCl` [Example 15]: the pIC50 in the series on MiaPaCa-2 was 5.88.
The compound `COC(=O)[C@H]1Cc2c([nH]c3ccccc23)[C@H](c2ccc(C(=O)OCC3(C)CC3)cc2)N1C(=O)CCl` [Example 84] gave a pIC50 in the series on MCF-10A of 6.32.
`COC(=O)[C@H]1Cc2c([nH]c3ccccc23)[C@H](c2ccc(C(=O)OCC3CCCCC3)cc2)N1C(=O)CCl` [Example 89]: the pIC50 in the series on MCF-10A was 6.38.
In the series on MCF-10A, `CC(=O)O[C@H]1C(=O)[C@@]2(C)[C@H]([C@H](OC(=O)c3ccccc3)[C@]3(O)C[C@H](OC(=O)[C@H](O)[C@@H](NC(=O)c4ccccc4)c4ccccc4)C(C)=C1C3(C)C)[C@]1(OC(C)=O)CO[C@@H]1C[C@@H]2O` [paclitaxel, Paclitaxel, reference compound] showed a pIC50 of 9.00.
